From ChEMBL document CHEMBL4765340, “Novel potent antiplatelet thrombotic agent derived from biguanide for ischemic stroke” (Eur J Med Chem, 2020)
Calls of active or inactive are those of the source. The rule behind the calls is not given here.

Key:
[1] = Suppression of glycoprotein IIb/IIIa activation in thrombin-stimulated human platelets by measuring activated GPIIb/IIIa at 0.05 mM measured after 3 hrs by PAC-1-FITC dye based flow cytometry (reference value: 90.1%); format: functional; settings: Platelet
[2] = Suppression of glycoprotein IIb/IIIa activation in thrombin-stimulated human platelets by measuring activated GPIIb/IIIa at 0.01 mM measured after 3 hrs by PAC-1-FITC dye based flow cytometry (reference value: 90.1%); format: functional; settings: Platelet
[3] = Toxicity in C57BL/6J mouse assessed as change in platelet ratio at 200 mg/kg twice daily for 60 days relative to control; format: organism-based; settings: in vivo, 1440 h, time 60 day
[4] = Toxicity in calcein-labelled platelet-mediated ferric chloride-induced arterial injury thrombosis po dosed C57BL/6J mouse model assessed as change in coagulation factor II treated twice a day measured upto 7 days; format: organism-based; settings: in vivo, 50 mg/kg, 168 h, time <=7 day
Platelet [5] = assay: Antiplatelet activity in human platelet on collagen-coated surface assessed as shear rate pre-incubated at 0.5 mM measured after 3 hrs by fluorescent microscopy (reference value: 100 =/- 7%); format: functional
Mus musculus [6] = assay: Antithrombotic activity in calcein-labelled platelet-mediated ferric chloride-induced arterial injury thrombosis C57BL/6J mouse model assessed as average time to occlusive thrombosis at 200 mg/kg, po administrated twice a day measured upto 7 days (reference value: 7.9 +/- 0.7 min); format: functional; settings: time day <=7
[7] = Toxicity in C57BL/6J mouse assessed as change in glucose level at 200 mg/kg twice daily for 60 days relative to control; format: organism-based; settings: in vivo, 1440 h, time 60 day
[8] = Inhibition of thrombin-stimulated human platelet aggregation by measuring aggregation at 0.50 mM measured after 3 hrs by scanning electron microscopy (Rvb= 87.2 +/- 4.0%); format: functional; set-up: scale not given: the % may be the effect or the level left; settings: dose 0.5 mM
Mus musculus [9] = assay: Antithrombotic activity in calcein-labelled platelet-mediated ferric chloride-induced arterial injury thrombosis C57BL/6J mouse model assessed as thrombus weight at 100 mg/kg, po administrated twice a day measured upto 7 days (reference value: 3.3 +/- 0.3 mg); format: functional; settings: time day <=7
[10] = Inhibition of thrombin-stimulated human platelet aggregation by measuring aggregation at 0.50 mM measured after 1 hrs by scanning electron microscopy; format: functional; set-up: scale not given: the % may be the effect or the level left; settings: dose 0.5 mM
[11] = Toxicity in C57BL/6J mouse assessed as change in mean platelet volume at 200 mg/kg twice daily for 60 days relative to control; format: organism-based; settings: in vivo, 1440 h, time 60 day
[12] = Toxicity against C57BL/6J mouse assessed as lungs morphology at 200 mg/kg twice a day measured after 60 days; format: organism-based; settings: in vivo, 1440 h, time 60 day
Mus musculus [13] = assay: Antithrombotic activity in calcein-labelled platelet-mediated ferric chloride-induced arterial injury thrombosis C57BL/6J mouse model assessed as thrombus length at 100 mg/kg, po administrated twice a day measured upto 7 days (reference value: 4.4 +/- 0.4 mm); format: functional; settings: time day <=7
Mus musculus [14] = assay: Antithrombotic activity in calcein-labelled platelet-mediated ferric chloride-induced arterial injury thrombosis C57BL/6J mouse model assessed as average time to occlusive thrombosis at 300 mg/kg, po administrated twice a day measured upto 7 days (reference value: 7.9 +/- 0.7 min); format: functional; settings: time day <=7
Mus musculus [15] = assay: Antithrombotic activity in calcein-labelled platelet-mediated ferric chloride-induced arterial injury thrombosis C57BL/6J mouse model assessed as thrombus length at 50 mg/kg, po administrated twice a day measured upto 7 days (reference value: 4.4 +/- 0.4 mm); format: functional; settings: time day <=7
[16] = Inhibition of thrombin-stimulated human platelet aggregation measured after 3 hrs by scanning electron microscopy; format: functional, tissue-based
Mus musculus [17] = assay: (§1) Antithrombotic activity in transient focal cerebral ischemic mouse model occlusion induced 60 mins of the right middle cerebral artery followed by reperfussion 23 hrs assessed as decrease in mortality rate at 200 mg/kg, po twice daily for 7 days […]; format: functional, organism-based; settings: time 7.0 day
Mus musculus [18] = assay: Antithrombotic activity in calcein-labelled platelet-mediated ferric chloride-induced arterial injury thrombosis C57BL/6J mouse model assessed as thrombus weight at 200 mg/kg, po administrated twice a day measured upto 7 days (reference value: 3.3 +/- 0.3 mg); format: functional; settings: time day <=7
[19] = Toxicity in C57BL/6J mouse assessed as change in chloride level at 200 mg/kg twice daily for 60 days relative to control; format: organism-based; settings: in vivo, 1440 h, time 60 day
[20] = Inhibition of thrombin-stimulated human platelet aggregation by measuring aggregation at 0.05 mM measured after 3 hrs by scanning electron microscopy (Rvb= 87.2 +/- 4.0%); format: functional; set-up: scale not given: the % may be the effect or the level left
[21] = Toxicity against C57BL/6J mouse assessed as pancreas morphology at 200 mg/kg twice a day measured after 60 days; format: organism-based; settings: in vivo, 1440 h, time 60 day
[22] = Cmax in Sprague-Dawley rat at 200 mg/kg, po compound dissolved in DMSO measured after 2 hr by HPLC-MS/MS analysis; format: ADME, organism-based; set-up: route oral, time 2 hrs, dose 200 mg/kg; settings: in vivo
[23] = Inhibition of thrombin-stimulated human platelet aggregation by measuring aggregation at 0.01 mM measured after 3 hrs by scanning electron microscopy (Rvb= 87.2 +/- 4.0%); format: functional; set-up: scale not given: the % may be the effect or the level left
[24] = Suppression of glycoprotein IIb/IIIa activation in thrombin-stimulated human platelets by measuring activated GPIIb/IIIa at 1 mM measured after 3 hrs by PAC-1-FITC dye based flow cytometry (reference value: 90.1%); format: functional; settings: Platelet
Platelet [25] = assay: Inhibition of thrombin-stimulated human platelet aggregation measured after 3 hrs by scanning electron microscopy with 0.01 to 1 U/ml varying concentration of thrombin by lumi-aggregometer; format: functional, tissue-based
[26] = Toxicity against C57BL/6J mouse assessed as kidney morphology at 200 mg/kg twice a day measured after 60 days; format: organism-based; settings: in vivo, 1440 h, time 60 day
[27] = AUC (0 to infinity) in Sprague-Dawley rat at 200 mg/kg, po measured by HPLC-MS/MS analysis; format: ADME, organism-based; set-up: time infinity, route oral, dose 200 mg/kg; settings: in vivo
[28] = Suppression of P-selectin expression in thrombin-stimulated human platelets by measuring CD62P positive platelets at 0.50 mM after 3 hrs by flow cytometry analysis (reference value: 78.2%); format: functional; settings: Platelet, at 0.5 mM
[29] = Toxicity in C57BL/6J mouse assessed as change in bicarbonate level at 200 mg/kg twice daily for 60 days relative to control; format: organism-based; settings: in vivo, 1440 h, time 60 day
[30] = Toxicity against C57BL/6J mouse assessed as spleen morphology at 200 mg/kg twice a day measured after 60 days; format: organism-based; settings: in vivo, 1440 h, time 60 day
Mus musculus [31] = assay: as §1, with “activated platelets with red blood cells and loose textured stroke thrombi” for “decrease in mortality rate”; format: functional, organism-based; settings: time 7.0 day
Mus musculus [32] = assay: Antithrombotic activity in calcein-labelled platelet-mediated ferric chloride-induced arterial injury thrombosis C57BL/6J mouse model assessed as average time to occlusive thrombosis at 50 mg/kg, po administrated twice a day measured upto 7 days (reference value: 7.9 +/- 0.7 min); format: functional; settings: time day <=7
Mus musculus [33] = assay: Antithrombotic activity in calcein-labelled platelet-mediated ferric chloride-induced arterial injury thrombosis C57BL/6J mouse model assessed as average time to occlusive thrombosis at 100 mg/kg, po administrated twice a day measured upto 7 days (reference value: 7.9 +/- 0.7 min); format: functional; settings: time day <=7
Mus musculus [34] = assay: Antithrombotic activity in calcein-labelled platelet-mediated ferric chloride-induced arterial injury thrombosis C57BL/6J mouse model assessed as thrombus weight at 50 mg/kg, po administrated twice a day measured upto 7 days (reference value: 3.3 +/- 0.3 mg); format: functional; settings: time day <=7

For `CN(C)C(=N)NC(=N)NS(=O)(=O)C(F)(F)F`, the level, % of control at 50 µM [1] was 74.3%, the level, % of control at 10 µM [2] was 84.2% and the Activity [3] was “Non-Toxic”. The Activity [4] was “Non-Toxic”, the Activity (Platelet [5]) was 37% and the Time (Mus musculus [6]) was 21.2 min. The Activity [7] was “Non-Toxic”, the Activity [8] was 21% and the Activity (Mus musculus [9]) was 1.1 mg. For the same compound, the Activity [10] was 60%, the Activity [11] was “Non-Toxic” and the Activity [12] was “Non-Toxic”. The Activity (Mus musculus [13]) was 2.8 mm, the Time (Mus musculus [14]) was 22.1 min and the Activity (Mus musculus [15]) was 3.5 mm. For the same compound, the IC50 [16] was 150 µM, the Activity (Mus musculus [17]) was “Active” and the Activity (Mus musculus [18]) was 0.4 mg. For the same compound, the Activity [19] was “Non-Toxic”, the Activity [20] was 62.2% and the Activity [21] was “Non-Toxic”. For the same compound, the Cmax [22] was 24300 ng/mL, the Activity [23] was 75.9% and the level, % of control at 1000 µM [24] was 37.2%. The inhibition (Platelet [25]) was “Active”, the Activity [26] was “Non-Toxic” and the AUC(0-inf) [27] was 201 µg·h/mL. The level, % of control at 500 µM [28] was 45.2%, the Activity [29] was “Non-Toxic” and the Activity [30] was “Non-Toxic”. For the same compound, the Activity (Mus musculus [31]) was “Active”, the Time (Mus musculus [32]) was 10.1 min and the Time (Mus musculus [33]) was 15.1 min. For the same compound, the Activity (Mus musculus [34]) was 2.7 mg.
